The results in this text go back to patent US20050197350A1, “Novel quinoline, tetrahydroquinazoline, and pyrimidine derivatives and methods of treatment related to the use thereof” (TAISHO PHARMACEUTICAL CO., LTD., priority 2003, published 2005).

SMILES strings stand for the structures.

The test system of this assay is MCH receptors. As to the kind of experiment: MCH receptor activity class (method not given). Conditions: MCH receptor activity class 1-3 (percent of control at 10^-7 M or IC50).

On to `CN(C)c1ccnc(N[C@H]2CC[C@@H](CNC(=O)Nc3c(F)cc(Br)cc3Br)CC2)n1` [compound 2417], for which the class is recorded as 1 (Class 1: The value of percent of control at 10^−7 M was less than 40% or the value of IC50 was less than 50 nM.). `CCc1cccc(CC)c1NC(=O)NC[C@H]1CC[C@@H](Nc2nccc(N(C)C)n2)CC1` [compound 2418, N-(2,6-diethylphenyl)-N′-[(cis-4-{[4-(dimethylamino)pyrimidin-2-yl]amino}cyclohexyl)methyl]urea]: the class is recorded as 1 (Class 1: The value of percent of control at 10^−7 M was less than 40% or the value of IC50 was less than 50 nM.). Take `CN(C)c1ccnc(N[C@H]2CC[C@@H](CNC(=O)Nc3c(Cl)cccc3C(F)(F)F)CC2)n1` [compound 2419]: the class was 1 (Class 1: The value of percent of control at 10^−7 M was less than 40% or the value of IC50 was less than 50 nM.). With `Cc1cccc(Cl)c1NC(=O)NC[C@H]1CC[C@@H](Nc2nccc(N(C)C)n2)CC1` [compound 2420, N-(2-chloro-6-methylphenyl)-N′-[(cis-4-{[4-(dimethylamino)pyrimidin-2-yl]amino}cyclohexyl)methyl]urea], the class is 1 (Class 1: The value of percent of control at 10^−7 M was less than 40% or the value of IC50 was less than 50 nM.). For `CN(C)c1ccnc(N[C@H]2CC[C@@H](CNC(=O)NCc3ccccc3Cl)CC2)n1` [compound 2421], the class is reported as 3 (Class 3 The value of percent of control at 10^−7 M was more than 60% or the value of IC50 was more than 200 nM.). With `CCc1ccccc1NC(=O)NC[C@H]1CC[C@@H](Nc2nccc(N(C)C)n2)CC1` [compound 2423], the class is 3 (Class 3 The value of percent of control at 10^−7 M was more than 60% or the value of IC50 was more than 200 nM.).

For the molecule `CN(C)c1ccnc(N[C@H]2CC[C@@H](CNC(=O)Nc3ccccc3I)CC2)n1` [compound 2424], the class is given as 3 (Class 3 The value of percent of control at 10^−7 M was more than 60% or the value of IC50 was more than 200 nM.). As for `Cc1cccc(C(C)C)c1NC(=O)NC[C@H]1CC[C@@H](Nc2nccc(N(C)C)n2)CC1` [compound 2425], the figure is 1 (Class 1: The value of percent of control at 10^−7 M was less than 40% or the value of IC50 was less than 50 nM.); as for `CC(C)c1ccccc1NC(=O)NC[C@H]1CC[C@@H](Nc2nccc(N(C)C)n2)CC1` [compound 2426], 3 (Class 3 The value of percent of control at 10^−7 M was more than 60% or the value of IC50 was more than 200 nM.). With `Cc1c(NC(=O)NC[C@H]2CC[C@@H](Nc3nccc(N(C)C)n3)CC2)cccc1[N+](=O)[O-]` [compound 2427, N-[(cis-4-{[4-(dimethylamino)pyrimidin-2-yl]amino}cyclohexyl)methyl]-N′-(2-methyl-3-nitrophenyl)urea], the class is 1 (Class 1: The value of percent of control at 10^−7 M was less than 40% or the value of IC50 was less than 50 nM.). In the case of `CCCc1ccccc1NC(=O)NC[C@H]1CC[C@@H](Nc2nccc(N(C)C)n2)CC1` [compound 2428, N-[(cis-4-{[4-(dimethylamino)pyrimidin-2-yl]amino}cyclohexyl)methyl]-N′-(2-propylphenyl)urea], the class is 2 (Class 2: The value of percent of control at 10^−7 M was from 40% to 60% or the value of IC′50 was from 50 nM to 200 nM.). For the molecule `Cc1cccc(C(C)(C)C)c1NC(=O)NC[C@H]1CC[C@@H](Nc2nccc(N(C)C)n2)CC1` [compound 2429, N-(2-tert-butyl-6-methylphenyl)-N′-[(cis-4-{[4-(dimethylamino)pyrimidin-2-yl]amino}cyclohexyl)methyl]urea], the class was 1 (Class 1: The value of percent of control at 10^−7 M was less than 40% or the value of IC50 was less than 50 nM.). As for `CN(C)c1ccnc(N[C@H]2CC[C@@H](CNC(=O)Nc3ccccc3C(C)(C)C)CC2)n1` [compound 2430, N-(2-tert-butylphenyl)-N′-[(cis-4-{[4-(dimethylamino)pyrimidin-2-yl]amino}cyclohexyl)methyl]urea], the figure is 1 (Class 1: The value of percent of control at 10^−7 M was less than 40% or the value of IC50 was less than 50 nM.); as for `Cc1c(Cl)cccc1NC(=O)NC[C@H]1CC[C@@H](Nc2nccc(N(C)C)n2)CC1` [compound 2431, N-(3-chloro-2-methylphenyl)-N′-[(cis-4-{[4-(dimethylamino)pyrimidin-2-yl]amino}cyclohexyl)methyl]urea], 1 (Class 1: The value of percent of control at 10^−7 M was less than 40% or the value of IC50 was less than 50 nM.). As for `CN(C)c1ccnc(N[C@H]2CC[C@@H](CNC(=O)Nc3c(F)cc(Br)cc3F)CC2)n1` [compound 2432], the figure is 1 (Class 1: The value of percent of control at 10^−7 M was less than 40% or the value of IC50 was less than 50 nM.). As for `CN(C)c1ccnc(N[C@H]2CC[C@@H](CNC(=O)Nc3ccc(Cl)cc3C(F)(F)F)CC2)n1` [compound 2433], the figure is 2 (Class 2: The value of percent of control at 10^−7 M was from 40% to 60% or the value of IC′50 was from 50 nM to 200 nM.); as for `CN(C)c1ccnc(N[C@H]2CC[C@@H](CNC(=O)Nc3ccc(C#N)cc3)CC2)n1` [compound 2434], 3 (Class 3 The value of percent of control at 10^−7 M was more than 60% or the value of IC50 was more than 200 nM.). `CN(C)c1ccnc(N[C@H]2CC[C@@H](CNC(=O)NC(c3ccccc3)c3ccccc3)CC2)n1` [compound 2435, N-[(cis-4-{[4-(dimethylamino)pyrimidin-2-yl]amino}cyclohexyl)methyl]-N′-(diphenylmethyl)urea]: the class was 1 (Class 1: The value of percent of control at 10^−7 M was less than 40% or the value of IC50 was less than 50 nM.).

On to `Cc1cc(Br)cc(C)c1NC(=O)NC[C@H]1CC[C@@H](Nc2nccc(N(C)C)n2)CC1` [compound 2436, N-(4-bromo-2,6-dimethylphenyl)-N′-[(cis-4-{[4-(dimethylamino)pyrimidin-2-yl]amino}cyclohexyl)methyl]urea], for which the class is 1 (Class 1: The value of percent of control at 10^−7 M was less than 40% or the value of IC50 was less than 50 nM.).

Consider `Cc1noc(-c2ccccc2)c1NC(=O)NC[C@H]1CC[C@@H](Nc2nccc(N(C)C)n2)CC1` [compound 2437], for which the class is reported as 1 (Class 1: The value of percent of control at 10^−7 M was less than 40% or the value of IC50 was less than 50 nM.). Turning to `Cc1cc(NC(=O)NC[C@H]2CC[C@@H](Nc3nccc(N(C)C)n3)CC2)c(C(F)(F)F)o1` [compound 2438], the class is given as 3 (Class 3 The value of percent of control at 10^−7 M was more than 60% or the value of IC50 was more than 200 nM.). Regarding `CN(C)c1ccnc(N[C@H]2CC[C@@H](CNC(=O)Nc3cc(Cl)cc(Cl)c3)CC2)n1` [compound 2439], the class was 2 (Class 2: The value of percent of control at 10^−7 M was from 40% to 60% or the value of IC′50 was from 50 nM to 200 nM.).

As to `CN(C)c1ccnc(N[C@H]2CC[C@@H](CNC(=O)Nc3cccc(Cl)c3Cl)CC2)n1` [compound 2440], the class is 1 (Class 1: The value of percent of control at 10^−7 M was less than 40% or the value of IC50 was less than 50 nM.).

As for `Cc1ccc(NC(=O)NC[C@H]2CC[C@@H](Nc3nccc(N(C)C)n3)CC2)cc1` [compound 2441], the class is recorded as 3 (Class 3 The value of percent of control at 10^−7 M was more than 60% or the value of IC50 was more than 200 nM.). Turning to `CC(C)c1cccc(C(C)C)c1NC(=O)NC[C@H]1CC[C@@H](Nc2nccc(N(C)C)n2)CC1` [compound 2442], the class is listed as 1 (Class 1: The value of percent of control at 10^−7 M was less than 40% or the value of IC50 was less than 50 nM.). Regarding `Cc1ccc([N+](=O)[O-])c(NC(=O)NC[C@H]2CC[C@@H](Nc3nccc(N(C)C)n3)CC2)c1C` [compound 2443], the class was 1 (Class 1: The value of percent of control at 10^−7 M was less than 40% or the value of IC50 was less than 50 nM.). For the molecule `CN(C)c1ccnc(N[C@H]2CC[C@@H](CNC(=O)Nc3c(Br)cc(F)cc3Br)CC2)n1` [compound 2444, N-(2,6-dibromo-4-fluorophenyl)-N′-[(cis-4-{[4-(dimethylamino)pyrimidin-2-yl]amino}cyclohexyl)methyl]urea], the class was 1 (Class 1: The value of percent of control at 10^−7 M was less than 40% or the value of IC50 was less than 50 nM.). Turning to `CN(C)c1ccnc(N[C@H]2CC[C@@H](CNC(=O)Nc3c(Cl)cccc3Cl)CC2)n1` [compound 2445], the class is on record as 1 (Class 1: The value of percent of control at 10^−7 M was less than 40% or the value of IC50 was less than 50 nM.).

`COc1ccc(C)cc1NC(=O)NC[C@H]1CC[C@@H](Nc2nccc(N(C)C)n2)CC1` [compound 2446]: the class is 2 (Class 2: The value of percent of control at 10^−7 M was from 40% to 60% or the value of IC′50 was from 50 nM to 200 nM.).

As for `Cc1cccc([N+](=O)[O-])c1NC(=O)NC[C@H]1CC[C@@H](Nc2nccc(N(C)C)n2)CC1` [compound 2447, N-[(cis-4-{[4-(dimethylamino)pyrimidin-2-yl]amino}cyclohexyl)methyl]-N′-(2-methyl-6-nitrophenyl)urea], the class is recorded as 2 (Class 2: The value of percent of control at 10^−7 M was from 40% to 60% or the value of IC′50 was from 50 nM to 200 nM.). As for `CN(C)c1ccnc(N[C@H]2CC[C@@H](CNC(=O)Nc3ccc(F)c(F)c3)CC2)n1` [compound 2448], the figure is 1 (Class 1: The value of percent of control at 10^−7 M was less than 40% or the value of IC50 was less than 50 nM.). For `CN(C)c1ccnc(N[C@H]2CC[C@@H](CNC(=O)Nc3cc(F)cc(F)c3)CC2)n1` [compound 2449], the class is given as 1 (Class 1: The value of percent of control at 10^−7 M was less than 40% or the value of IC50 was less than 50 nM.).

As for `CN(C)c1ccnc(N[C@H]2CC[C@@H](CNC(=O)Nc3ccc(F)c(Cl)c3)CC2)n1` [compound 2450, N-(3-chloro-4-fluorophenyl)-N′-[(cis-4-{[4-(dimethylamino)pyrimidin-2-yl]amino}cyclohexyl)methyl]urea], the class is on record as 1 (Class 1: The value of percent of control at 10^−7 M was less than 40% or the value of IC50 was less than 50 nM.). With `CN(C)c1nc(N[C@H]2CC[C@@H](CNC(=O)Nc3ccccc3Cl)CC2)nc2c1CCCC2` [compound 2451], the class is 3 (Class 3 The value of percent of control at 10^−7 M was more than 60% or the value of IC50 was more than 200 nM.).
